Earlier results in patent US7994157B2, “Method for dispersing plant sterol for beverage and a plant sterol-dispersed beverage, of which particle size is nanometer-scale in dispersed beverage” (KIP Biotech LLC, priority 2000, dated 2011).

System: serum cholesterol level
Conditions: applied form in an oil phase (margarine); U.S. Pat. No. 5,502,045

In the case of sitostanol fatty acid ester, the “reduction of the LDL-C level” value is listed as at most 16%.
